In patent US20140186875A1, “NOVEL OPTICAL LABELING MOLECULES FOR PROTEOMICS AND OTHER BIOLOGICAL ANALYSIS” (Montana State University, priority 2007, published 2014):

Columns and labels:
[1] = Optical properties of the dyes (absorbance, emission, extinction coefficient, quantum efficiency); assay type: physicochemical
[2] = test system: Glutathione S Transferase Omega1—GSTO1; experiment: Differential 2D gel analysis of developing rat brain proteins raised on high and low docosahexaenoic acid; assay type: in vivo; conditions: DHA enriched diet compared with adequate control diet, cytosolic brain fraction
Method: Each forebrain was ground using a pestle and mortar, previously brought to liquid nitrogen temperature in a sealed plastic bag with positive dry nitrogen gas pressure. After grinding of the tissue at liquid nitrogen temperature, […] sample of cell lysis buffer containing 20 mM Bicine, 5 mM magnesium acetate, 0.5% Nonidet P-40 and Roche Complete protease inhibitor—mini EDTA free, were added to about a 100 mg sample and mixed well in a 2 ml microcentrifuge tube. Sample fractionation—Crude nuclear fraction (P1) was removed by sedimentation at 1000×g for 10 min at room temp. The supernatant (S1) was removed and was ultra-centrifuged at 100,000×g at 4° C. for an hour in 2 ml polycarbonate tubes in a swinging bucket rotor. The cytosolic fraction S2 was separated. […] Protein concentrations of the cytosolic and membrane organelle fractions were assessed, using the Bio-Rad RCDC assay. […]
1st dimension separation—the sample was spread in a lane of a Bio-Rad Protean isoelectric focusing (IEF) cell tray, an 18 cm 3-10 non-linear IPG strip, or 3-7, or 6-11 IEF strip was put on top of it, covered with mineral oil and allowed to passively re-hydrate for one hr. […] The IPG strips were then transferred to an Ettan IPGphor and covered with mineral oil for monitored iso-electric focusing as follows, 3:30 hrs 300V, 2:30 hrs 1000V, 2:30 hrs 2500V and 7:30 hrs 3500V. […]

| ε [1] | λ(abs) [1] [nm] | λ(ems) [1] [nm] | QE (QY) [1] [%] | Compound | down-regulation of spot 2 (GSTO1) [2] | up-regulation of spot 1 (GSTO1) [2] |
| --- | --- | --- | --- | --- | --- | --- |
| 280000 1·cm^−1·mol^−1 | 629 | 640 | – | CN1/C(=C/C2=C([O-])C(=C/C3=[N+](C)c4ccccc4C3(C)C)/C2=O)C(C)(C)c2ccccc21 [Compound 220] | – | – |
| – | – | – | – | CC/C=C\C/C=C\C/C=C\C/C=C\C/C=C\C/C=C\CCC(=O)O [DHA, Docosahexaenoic acid] | 1.7 | 2.5 |
| 101400 1·cm^−1·mol^−1 | 644 | 657 | 2.9 | COc1cc(C(C)O)c([N+](=O)[O-])cc1OCCN(C)CCNC(=O)C(CS(=O)(=O)[O-])NC1=C(/C=C2/N(C)c3ccccc3C2(C)C)C(=O)/C1=C\C1=[N+](C)c2ccccc2C1(C)C (centres unmarked) [Compound 227] | – | – |
| 127300 1·cm^−1·mol^−1 | 644 | 657 | 2.9 | CN(CCCCCC(=O)O)CCNC(=O)C(CS(=O)(=O)[O-])NC1=C(/C=C2/N(C)c3ccccc3C2(C)C)C(=O)/C1=C\C1=[N+](C)c2ccccc2C1(C)C (centres unmarked) [Compound 222] | – | – |

| Compound | ε [1] | λ(abs) [1] [nm] | λ(ems) [1] [nm] | QE (QY) [1] [%] | down-regulation of spot 2 (GSTO1) [2] | up-regulation of spot 1 (GSTO1) [2] |
| --- | --- | --- | --- | --- | --- | --- |
| COc1cc(C(C)OC(=O)Oc2ccc([N+](=O)[O-])cc2)c([N+](=O)[O-])cc1OCCNC(=O)C(CS(=O)(=O)[O-])NC1=C(/C=C2/N(C)c3ccccc3C2(C)C)C(=O)/C1=C\C1=[N+](C)c2ccccc2C1(C)C (centres unmarked) [Compound 230] | 79400 1·cm^−1·mol^−1 | 646 | 661 | 3.3 | – | – |
